In one series the test system is isolated neutrophils. Kind of series: Luminol-dependent chemiluminescence, neutrophil respiratory burst. Type of series: cell-based, human. Conditions: final peptide 5 μM or 20 μM, final plasma dilution 1:50, 37 °C. The method, then:
Neutrophils and plasma were obtained from the same person. Plasma diluted five times in complete Krebs–Ringer buffer solution was treated with 50 μM or 200 μM CAMP, with plasma dilution and CAMP concentrations being the same as in the samples for hemolysis assay. The final plasma content in samples for CL measurement was restricted to no higher than 2%, since plasma constituents can inhibit luminol-dependent CL due to the scavenging effect. Following the addition of luminol to neutrophils, light emission recording was started. Spontaneous cell activation, if it occurred, was allowed to complete, and then the CAMP-containing plasma or control plasma was added (Figure 6), yielding a final plasma dilution of 1:50 and a final CAMP concentration of 5 μM or 20 μM. […] The effect was dose-dependent (Figure 6).
Chemiluminescence study was conducted at 37 °C with a Lum-1200 chemiluminometer (DISoft Llc, Moscow, Russia) measuring the intensity of emitted light in volts. Assays were performed with the following components in a total volume of 500 μL:435 μL of neutrophil suspension (final, 0.5 × 10^6 cells/mL) in complete Krebs–Ringer buffer solution, 10 μL of luminol (final, 200 μM), 50 μL of five-fold diluted (in the above buffer solution) autologous plasma containing or not containing CAMP at a desired concentration, 5 μL of PMA (final, 160 nM).
Neutrophils were placed in chemiluminometer cuvettes and equilibrated at 37 °C in the cuvette holder, after which luminol was added to each sample and the light emission was continuously recorded. In desired time intervals, plasma mixed with CAMP (or control plasma) and then PMA were added.

The test system of series [1] is neutrophils in whole blood. Description: Neutrophil extracellular trap (NET) assay in whole blood. Conditions: 100 μM peptide, ex vivo blood, 3 h, 37 °C, no PMA. Type of series: cell-based, human. As to the method: EDTA-anticoagulated capillary blood was obtained via a finger prick. Blood aliquots of 20 μL were placed in 1.5 mL Eppendorf tubes and mixed with 2 μL of a CAMP solution (or 2 μL of PBS in controls). The samples were incubated for 3 h. After the first 1 h, PMA (100 nM final concentration) was added to a part of them, and incubation continued for a further 2 h. Cell settling was prevented by continuous gentle turning the tubes up and down using a Multi Bio RS-24 rotator (Biosan, Riga, Latvia). The blood was retained at the tube bottom by surface tension.
NET counts were performed using standardized blood smears stained by Romanowsky method. The smears were examined using a Motic B microscope (Motic, Xiamen, China). Quantitative assessment of NETs was performed as described previously. NETs among 300–500 leukocytes were counted in the middle third part of the smear, and the NETs-to-leukocyte percentage ratio was calculated. Based on counting results, the number of NETs in 1 μL of blood was calculated. In each experiment, two parallel samples were prepared and three parallel smears were taken from each at each observation point.

In series [2] the test system is blood plasma coagulation (intrinsic and final common pathways). Kind of series: Plasma coagulation assay, activated partial thromboplastin time (APTT). More on the design: species or system human. The method, then:
(§1) Plasma samples (50 μL) were incubated for 15 min at room temperature with 0, 25, 50 or 100 μM CAMP, and then the coagulation assay steps were carried out according the manufacturer’s instructions.
(§2) The plasma coagulation tests were performed using an APG4-03-Pkh hemostasis analyzer (EMCO Llc, Moscow, Russia) and MLT-APTT and MLT-THROMBOPLASTIN reagent kits (MLT Llc, Moscow, Russia) according to the manufacturer’s instructions. Testing was performed on Plasma N (normal), a mixed pool of citrate anticoagulated plasma obtained from healthy donors, manufactured by RENAM Rpd, Moscow, Russia. Fifty microliter plasma samples supplemented with CAMPs at different concentrations (or with PBS as control) were pre-incubated at room temperature for 15 min. Afterward, in case of measuring activated partial thromboplastin time (APTT), 50 μL of APTT Reagent were added. The samples were warmed at 37 °C for 3 min, and 50 μL of Calcium Chloride Solution were added to initiate fibrin clot formation. For measuring prothrombin time (PT), pre-incubated plasma samples were warmed at 37 °C for 1 min, and fibrin clot formation was triggered by adding 100 μL of Thromboplastin Reagent.

Series [3] relates to blood plasma coagulation (extrinsic and common pathways). Kind of series: Plasma coagulation assay, prothrombin time (PT). More on the design: species or system human. The settings on record: for PT increase compared to control: 15 min pre-incubation at room temperature. The method, then: as §1, §2
Series [4] relates to erythrocytes. Description: Morphological observation of isolated erythrocytes (aggregation). Type of series: cell-based, human. As to the method: Pept_3 stood out from the other four CAMPs in that it not only lysed, but also aggregated cells. An erythrocyte aggregate formed is illustrated by Figure 2. Samples for morphological observation of erythrocytes were the same as those for hemolysis assay. After incubation at 37 °C for 0.5 h, the samples were processed to fix with glutaraldehyde for qualitative morphological evaluation with light microscopy. A glutaraldehyde fixation method was applied for isolated cells to prevent damage that can occur during preparing smears, which are good for cells in blood.
Samples for morphological observation of erythrocytes were the same as those for hemolysis assay. After incubation at 37 °C for 0.5 h, the samples were centrifuged at 100× g for 5 min, following which the supernatant was removed and the cells fixed by resuspending them in 0.5 mL of 1% glutaraldehyde solution in PBS. Then, erythrocytes were left for 3 h at room temperature, with regular mixing. The fixed cells were stored at 4 °C until use. The supernatant over settled cells was withdrawn, and a cell aliquot was placed in a small workspace cut in the piece of scotch tape put on a microscope slide. Images were examined using a Motic B light microscope (Motic, Xiamen, China).

Another series concerns Escherichia coli. The settings on record: cited from earlier work. The text has this:
Table 1 Cationic antimicrobial peptides (CAMPs) used in this study and their characteristics. | column: MIC, μM (E. coli)

Series [5] deals with erythrocytes. Description: Hemolysis assay, erythrocytes in PBS. Type of series: cell-based, human. Conditions: hemolysis assay, 0.5 h, 37 °C; rough estimate; read-out: Concentration at which 50% lysis was achieved, erythrocytes. The method, then: Erythrocytes were incubated (0.5 h, 37 °C) with different CAMP concentrations ranging from 6.25 μM to 100 μM. Incubation conditions chosen were similar to those used in other studies. Following incubation, the samples were centrifuged, and the supernatant analyzed spectrophotometrically for hemoglobin at 414 nm and 540 nm. Absorption at 414 nm provides higher sensitivity. The results were the same no matter which wavelength was used to monitor for hemoglobin.
(§3) The hemolytic activity of CAMPs was determined using a hemolysis assay measuring hemoglobin released from damaged cells. A working erythrocyte suspension (in PBS) was prepared so that its ten-fold dilution gave an optical density of 0.4 at 800 nm. This working suspension corresponded to a cell density of about 30 × 10^6 cells/mL. Aliquots of 125 μL of CAMP solutions of different concentrations were added to Eppendorf tubes. […] The supernatant (200 μL) was transferred to the wells of a microplate, and the absorbance of hemoglobin was measured by a Thermo Electron Multiskan Ascent microplate reader (Thermo Fisher Scientific Inc., Waltham, MA, USA), with a test wavelength of 414 nm as well as 540 nm and a background wavelength of 690 nm. The hemolysis percentage was calculated using the following equation: Hemolysis (%) = {(sample absorbance − negative control)/(positive control − negative control)} × 100.

Series [6] has as its system erythrocytes. Description: Hemolysis assay in the presence of human serum albumin (HSA). Type of series: cell-based. The settings on record: 50 μM peptide, 50 μM HSA, 0.5 h, 37 °C. The method, then: Given that the normal HSA concentration in plasma is 500–700 μM and the dilution of plasma in the final, cell-containing samples was 1:10, a final HSA concentration of 50 μM was applied. Then, 100 μM CAMP working solutions were made up in PBS or PBS containing 100 μM or 70 μM HSA to give final concentrations of 50 μM CAMP and 50 μM or 35 μM HSA.
as §3

For series [7] the following is noted: preparation of 2 mM stock solution; dissolved with PBS containing 4% DMSO.
Procedure: First, 2 mM stock solutions of CAMPs were prepared in PBS, except for the CAMPs pept_1 and pept_2. […] Its 2 mM solution was made up using PBS containing 4% DMSO (PBS/DMSO), which gave a final DMSO concentration not higher than 0.2% in any of experiments. […] Therefore, negative controls containing relevant concentrations of DMSO were run for pept_1 and pept_2, and DMSO contribution was eliminated by subtracting the measured value in the negative control samples from that in the test samples.
Series [8] relates to erythrocytes. Description: Hemolysis assay in the presence of autologous plasma. Type of series: cell-based, human. The method, then: The interaction with blood plasma constituents is known to play an important role in the pharmacokinetics and effectiveness of therapeutic agents. For CAMPs, the binding in plasma could decrease their effective concentration at the site of action and, thereby, their antimicrobial activity. To elucidate whether CAMP interaction with cells is affected by plasma, presumably through CAMP binding, we performed the hemolysis assay. The erythrocyte suspension was added to the same volume of PBS containing CAMP at two times the final concentration or PBS containing both CAMP and 20% autologous plasma. Calculations for extracellular hemoglobin were made based on the negative and positive control samples containing or not containing plasma.
as §3, with “cells.” for “cells. A working erythrocyte suspension (in PBS) was prepared so that its ten-fold dilution gave an optical density of 0.4 at 800 nm. This working suspension corresponded to a cell density of about 30 × 10^6 cells/mL. Aliquots of 125 μL of CAMP solutions of different concentrations were added to Eppendorf tubes.”

Another series has as its system mononuclear cells. Kind of series: LDH release cytolysis assay, mononuclear cells. The settings on record: 50 μM peptide, PBS, 0.5 h, 37 °C; Lysis solution = 100%. The method, then: (§4) The disruptive effect of peptides on the plasma membrane of mononuclear cells and neutrophils was evaluated by the leakage of lactate dehydrogenase (LDH) from damaged cells. Experiments were run in PBS as a medium without calcium and magnesium ions, not to favor neutrophil and monocyte activation.
(§5) Aliquots of cell suspension without or with CAMPs at different concentrations were incubated at 37 °C for 0.5 h. Then, the assay steps were carried out. In each experiment, there were both mononuclear cells and neutrophils from the same healthy subject.
(§6) The cytolytic activity of CAMPs against mononuclear cells and neutrophils was determined using a lactate dehydrogenase (LDH) assay measuring LDH released upon cell lysis. Working cell suspensions in PBS supplemented with […] glucose were adjusted to an optical density of 0.12 at 800 nm, which corresponded to a cell density of about 600 × 10^3 cells/mL. LDH assay was performed using a Cytotoxicity Detection Kit^PLUS (LDH) (Roche Diagnostics, Mannheim, Germany) according to the manufacturer’s protocol. Then, 50 μL aliquots of CAMP solutions of different concentrations were placed in the wells of a microplate. The medium used for preparing CAMP solutions and the kit’s Lysis solution served for negative and positive controls, respectively. […]
(In general: LDH in the medium is a marker of cell lysis.)

A further series deals with neutrophils. Kind of series: LDH release cytolysis assay, neutrophils. Conditions: 50 μM peptide, PBS, 0.5 h, 37 °C; Lysis solution = 100%. As to the method: as §4, §5, §6
The mark [9] stands for this setting: 25, 50, 100 μM peptide in plasma.

The text below walks through data of publication PMC9503446, “Effects of Medicinal Leech-Related Cationic Antimicrobial Peptides on Human Blood Cells and Plasma” (Molecules, 2022).

Values after ≈ are worked out from the molar mass of the structure shown. Residues, ends and D or L forms follow the SMILES beside them. No end group written: not given here.

For `CC(C)C[C@H](NC(=O)[C@H](Cc1ccccc1)NC(=O)[C@H](CS)NC(=O)[C@@H](NC(=O)[C@H](CC(C)C)NC(=O)[C@H](CCCNC(=N)N)NC(=O)[C@H](Cc1c[nH]c2ccccc12)NC(=O)[C@@H](N)CCCNC(=N)N)C(C)C)C(=O)N[C@@H](CS)C(=O)N[C@@H](CCCNC(=N)N)C(=O)N[C@@H](CCCNC(=N)N)C(=O)N[C@@H](CCCCN)C(=O)N[C@@H](CCCCN)C(=O)N[C@H](C(N)=O)C(C)C` [pept_3] (H-RWRLVCFLCRRKKV-NH2; N-terminus and C-terminus assumed), the “Neutrophil respiratory burst (luminol-dependent chemiluminescence) in response to peptide-pretreated plasma” value in the series with isolated neutrophils is reported as “CL increase, though relatively low”. Moreover, the “NET concentration versus control blood” value in series [1] is “No significant difference”. The “APTT prolongation versus control” value in [2] (100 μM peptide in plasma, 15 min pre-incubation at room temperature) is listed as about 390%. Besides, the “PT increase compared to control” value in [3] (25 μM peptide in plasma) was “about 165%”; in series [3] (50 μM peptide in plasma), 320%; in series [3] (100 μM peptide in plasma), about 780%. Besides, in the series on erythrocytes [4] (50 μM peptide in PBS, 0.5 h, 37 °C, glutaraldehyde fixation, light microscopy), the Erythrocyte aggregation entry is on record as “induces erythrocyte aggregation”. Moreover, the “Erythrocyte aggregation, peptide preincubated with plasma” value in the series with erythrocytes [4] (peptide preincubated with plasma) is recorded as “no cell aggregation was observed”. For the same compound, the “MIC (E. coli)” value in the series with Escherichia coli was 17 µM (≈ 31.7 µg/mL).
In the case of FRIMRILRVLKL-NH2 [pept_1], the EC50 with erythrocytes [5] is 65 µM. Moreover, in the series on erythrocytes [6], the “Inhibition of CAMP-induced hemolysis by HSA” value is recorded as “nearly completely”. The “Solubility in PBS” value in series [7] is on record as “poorly soluble in PBS”.
Turning to “RPILIRVRRIRVI-NH2 (C-terminus assumed) [pept_5]”, in the series on erythrocytes [8] (50 μM final peptide (100 μM mixed with five-fold diluted plasma)), the “Effect of plasma on CAMP-induced hemolysis” value is “complete inhibition”. Also, the “Effect of plasma on the hemolytic effect” value with erythrocytes [8] (100 μM final peptide, autologous plasma final dilution 1:10, 0.5 h, 37 °C) was “completely inhibited”. In addition, the “Lysis of mononuclear cells (LDH release)” value in the series with mononuclear cells is “about 20%”. Also, the “Lysis of neutrophils (LDH release)” value in the series with neutrophils was about 15%. In the series with isolated neutrophils, the “Neutrophil respiratory burst (luminol-dependent chemiluminescence) in response to peptide-pretreated plasma” value was “no development of the respiratory burst”. In addition, in series [1], the “NET concentration versus control blood” value was “No significant difference”. Moreover, the “APTT change from the control value” in [2] (setting [9]) is on record as “No significant APTT change”. Moreover, the “Effect on PT” value in series [3] (setting [9]) was “not significantly affected”. In the series with Escherichia coli, the “MIC (E. coli)” value is 77 µM.
